Test results as given in US7297771B2 (priority 1992, dated 2007).

Columns and labels:
[1] = biological target: K56 receptor (mouse delta opioid receptor) (Mus musculus, UniProt P32300); assay: biochemical
[2] = biological target: T1, delta opioid receptor of NG 108-15 cells (Mus musculus, UniProt P32300); assay: biochemical; type: binding
T1 construct: NG 108-15 cells, which express the delta opioid receptor naturally; endogenous in cells; host or cells: NG 108-15 cells (membranes)
T1 sequence (P32300 whole entry): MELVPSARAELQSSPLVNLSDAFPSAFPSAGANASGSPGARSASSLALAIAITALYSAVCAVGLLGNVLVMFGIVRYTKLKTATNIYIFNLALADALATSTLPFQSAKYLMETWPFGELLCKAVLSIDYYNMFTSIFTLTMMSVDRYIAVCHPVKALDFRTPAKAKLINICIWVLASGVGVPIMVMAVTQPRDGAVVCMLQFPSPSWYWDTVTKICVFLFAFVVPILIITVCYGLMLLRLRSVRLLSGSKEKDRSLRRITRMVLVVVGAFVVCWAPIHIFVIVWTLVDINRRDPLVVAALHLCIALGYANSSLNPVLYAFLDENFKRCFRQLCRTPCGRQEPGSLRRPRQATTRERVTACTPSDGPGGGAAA

Sequence of K56 receptor (mouse delta opioid receptor) (P32300 whole entry): as above

Row | Compound | Ki ([1]; inhibition constant Ki) | Ki ([1]; PKi Cos K56) | Ki [2]
1 | CN1CC[C@]23CCCC[C@H]2[C@H]1Cc1ccc(O)cc13 [Levorphanol, levorphanol] | 20.9 nM | – | –
2 | CCC12CCN(CC3(O)CC3)C(Cc3ccc(O)cc31)C2(C)C (stereo not shown) [Bremazocine, bremazocine] | 5.7 nM | 5.62 nM | 1.78 nM
